Counter-ions that a name gives are not always drawn.
How the values were obtained:
[1] = test system: L. amazonensis LV78 promastigotes; assay: Anti-promastigote activity (MTS assay), L. amazonensis LV78; type: cell-based; conditions: 72 hours
Procedure, shortened: (§1)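 Promastigotes (1×10^5 per well) in Schneider's medium pH 6.9 with 10% FBS, exposed to serial compound concentrations for 72 h at 27 °C. Viability by MTS/PMS reduction over 4 h, OD 490 nm; IC50 derived.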

[2] = test system: L. donovani HU3 promastigotes; assay: Anti-promastigote activity (MTS assay), L. donovani HU3; type: cell-based; conditions: 72 hours
Procedure, shortened: as §1

mouse fibroblast (L929) = assay: Cytotoxicity, L929 fibroblasts; type: cell-based; conditions: mouse fibroblast L929
Description: (§2) IC50 values of known antileishmanials and the amine-containing flavonoid monomers of the present invention to promastigotes (L. amazonensis LV78, L major FV1, L. donovani HU3, L. donovani 39), macrophages (Raw 264.7 and PEM) and mouse fibroblast (L929) were determined. The anti-promastigotes activities and cytotoxicity of the amine-containing flavonoid monomers of the invention are shown in Table 1.

[3] = test system: L. amazonensis LV78 amastigotes; assay: Anti-amastigote activity in infected PEM, L. amazonensis LV78; type: cell-based; conditions: for IC50: infected PEM, 3 days, Giemsa; for Selective index (a)/(b): IC50 RAW264.7 over IC50 L. amazonensis LV78 amastigotes
Procedure, shortened: (§3)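 Adherent mouse PEM are infected with late-log promastigotes (20 parasites per macrophage) for 24 h, washed, and cultured with drug in supplemented DMEM with 10% FBS for 72 h at 37 °C. Percent infected cells and amastigotes per 100 macrophages are scored by Giemsa staining and IC50 is derived.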

[4] = test system: L. donovani HU3 amastigotes; assay: Anti-amastigote activity in infected PEM, L. donovani HU3; type: cell-based; conditions: infected PEM, 3 days, Giemsa, SSG-sensitive
Procedure, shortened: as §3

[5] = test system: L. major FV1 promastigotes; assay: Anti-promastigote activity (MTS assay), L. major FV1; type: cell-based; conditions: Leishmania major, 72 hours
Procedure, shortened: as §1

[6] = test system: L. donovani Ld39 promastigotes; assay: Anti-promastigote activity (MTS assay), L. donovani Ld39; type: cell-based; conditions: Leishmania donovani, 72 hours
Procedure, shortened: as §1

[7] = Cytotoxicity, RAW264.7 macrophages; type: cell-based; conditions: mouse, RAW264.7 macrophage cells; murine macrophages RAW264.7
Description: Promastigotes of visceral L. donovani Ld39 and LdHU3, and cutaneous L. amazonensis LV78, L. braziliensis UA847 and L. major FV1 were employed in the study. All strains were cultured in Schneider's Drosophila Medium (Invitrogen), pH 6.9 supplemented with 10% (v/v) heat inactivated fetal bovine serum (Hyclone) with 4 mM glutamine (Sigma) and 25 μg/mL gentamicin solution (Invitrogen) at 27° C. for 4 days. RAW264.7 cells were cultured in supplemented DMEM media with 10% heat inactivated FBS and 100 U/mL penicillin and 100 μg/mL of streptomycin. They were maintained at 37° C. in a humidified atmosphere with 5% CO2. The cells were split constantly after a confluent monolayer has been formed. The cells were harvested by a cell scraper.
as §2

[8] = Cytotoxicity, peritoneal elicited macrophages (PEM); type: cell-based, mouse; conditions: mouse, peritoneal elicited macrophages (PEM), peritoneal elicited macrophages; read-out: Cytotoxicity IC50, PEM
[9] = test system: L. braziliensis UA847 amastigotes; assay: Anti-amastigote activity in infected PEM, L. braziliensis UA847; type: cell-based; conditions: Leishmania braziliensis, 72 h, 3 days, Giemsa, read-out: Anti-amastigote activity IC50, L. baziliensis UA847
Description: (§4) Mouse peritoneal elicited macrophages (PEM) were obtained as previously described (2). A round cover slip (12 mm in diameter) was placed into each well of 24-well culture plate. Mouse PEM were resuspended in supplemented DMEM media containing 10% heat inactivated FBS (v/v), 100 U/mL penicillin and 100 μg/mL streptomycin and seeded into each well at a cell density of 1×10^5 cells per 500 μL. Macrophages were allowed to attach overnight. Non-adherent cells were removed by gentle washing with un-supplemented DMEM media twice. Adherent macrophages were infected with late-log promastigotes at a parasite-to-macrophage ratio of 20:1 overnight at 37° C. with 5% CO2. Non-internalized promastigotes were removed by washing twice with un-supplemented DMEM media. Infected macrophages were further incubated in 500 μL of supplemented DMEM media in the presence or absence of FM for 72 hours at 37° C. After incubation, cover slips were stained with Giemsa and the percentage of macrophages infected and number of amastigotes per 100 macrophages was enumerated.
(§5) PEM cells were infected with late-log promastigotes (L. amazonensis LV78, L. braziliensis UA847, L. donovani HU3, L. donovani 39) for 24 hr at 37° C. Infected macrophages were then treated with various antileishmanials and incubated for 3 days at 37° C. After 3 days, the cover slips were stained with Giemsa. The number of amastigotes per 100 macrophages were determined and used to calculate IC50 values.

[10] = test system: L. donovani Ld39 amastigotes (SSG-resistant); assay: Anti-amastigote activity in infected PEM, L. donovani Ld39; type: cell-based; conditions: for IC50: Leishmania donovani, 72 h, infected PEM, 3 days, Giemsa, SSG-resistant
Procedure, shortened: as §3

RAW264.7 cells = assay: Reactive oxygen species (ROS) level, DCFDA, RAW264.7; type: cell-based, murine
Description: (§6) 50,000 RAW264.7 were seeded in each well of black 96-well plates overnight. Next day, RAW264.7 cells were pre-loaded with 10 μM dichlorofluorescein diacetate (DCFDA) (Abcam) for 1 hr at 37° C. with 5% CO2. A control of non-DCFDA stained cells was also included. The DCFDA-contained supplemented DMEM media was removed. The cells were re-suspended with 10 μM or 30 μM of respective tested compounds and positive control, tert-butyl hydroperoxide. In Leishmania, 1×10^7 promastigotes were also pre-loaded with 10 μM DCFDA at 27° C. for 1 hr. After removing the DCFDA-contained media, the promastigotes were seeded into black 96-well plate and incubated with 30 μM of respective compounds or positive control. The ROS level was determined at different periods of time including 2, 4, 6, 8, 20, 46 and 72 hr using microplate reader (excitation: 485 nm and emission: […]).
(§7) The ROS levels in both macrophage RAW264.7 and L. amazonensis promastigotes was measured by dichlorofluorescein diacetate (DCFDA) dye which is permeable to the cells. With oxidative stress, DCFDA would be oxidized to fluorescent DCF which is an indicator of intracellular ROS level. RAW cells or L. amazonensis promastigotes were pre-loaded with 10 μM of DCFDA for 1 hr, washed and exposed to 39, FM09, pentamidine and amphotericin B for different period of time (2, 4, 6, 8, 20, 46 and 72 hr). The fluorescence level was measured at the 520 nm using 485 nm as an excitation wavelength. 0.1% DMSO or 0.3% DMSO was used as a solvent control. The fluorescent value has been subtracted from non-DCFDA stained cells. The values were presented as mean±standard error of mean.

[11] = test system: L. amazonensis LV78 promastigotes; assay: Reactive oxygen species (ROS) level, DCFDA, promastigotes; type: cell-based; conditions: 30 μM
Description: as §6, §7

[12] = Cytotoxicity, L929 fibroblasts; type: cell-based, mouse; conditions: mouse
Description: as §2

[13] = Preliminary oral bioavailability, single time point plasma concentration oral vs i.v.; type: in vivo, Balb/c mice; conditions: hydrochloride salt in saline, 30 minutes, dose-normalized
Description: FM01.HCl and FM05.HCl were administered to Balb/c mice via intravenous and passive oral administration. The blood plasma was collected at 30 minutes for LC-MSMS analysis and used for preliminary oral bioavailability screening. The corresponding plasma concentration was normalized by the administered dose for oral bioavailability calculation.
FM01 and FM05 hydrochloride salt was dissolved in saline and administered to Balb/c mice either orally or i.v. Plasma level of FM01 and FM05 was determined 30 minutes later by LC-MS and their identity confirmed by LC-MS/MS. Plasma concentration from oral feeding was divided by that obtained from i.v. administration. […] In these preliminary studies, the ratios were 45% for FM01 and 64% for FM05 (FIG. 3).

[14] = test system: promastigotes (L. amazonensis LV78, L major FV1, L. donovani HU3, L. donovani 39); assay: Anti-promastigote activity, strain not given; type: cell-based; conditions: Leishmania amazonensis; strain not specified; read-out: IC50 against promastigotes
Description: Anti-promastigote activity was determined according to previous procedures (1) by Cell Titer 96® Aqueous Assay (Promega) that employed a tetrazolium compound. Promastigotes were seeded into 96-well flat bottom microtiter plate at 1×10^5 cells per well in a final volume of 100 μL medium and incubated with a series of concentrations of synthetic FM. Parasites were incubated at 27° C. for 72 hours. After 72 hours of incubation, 10 μL of MTS:PMS mixture [MTS:2-(4,5-Dimethylthiazol-2-yl-)-5-[3-(carboxymethoxy)phenyl]-2-(4-sulfophenyl)-2H-tetrazolium); PMS: phenazine methosulfate both purchased from Sigma] was added into each well of microtiter plate. The plate was then incubated at 27° C. for 4 hours for color development. After 4 hours of incubation, the OD values were determined at 490 nm using automatic microtiter plate reader (Bio-Rad).
as §2

[15] = test system: amastigotes (L. amazonensis LV78, L. braziliensis UA847, L. donovani HU3, L. donovani 39); assay: Anti-amastigote activity, strain not given; type: cell-based; conditions: strain not specified; visceral and cutaneous Leishmania; read-out: IC50 against amastigotes
Description: as §4, §5

O=c1cc(-c2ccc(OCCOCCN(Cc3ncccc3F)Cc3ncccc3F)cc2)oc2ccccc12 [FM09c.HCl]
IC50 [1]: 2.66 ± 0.3 µM | IC50 [2]: 4.97 ± 1.04 µM | IC50 (mouse fibroblast (L929)): 39 ± 6.1 µM | IC50 [3]: 1.45 ± 0.31 µM | IC50 [4]: 2.9 ± 1.49 µM

N=C(N)c1ccc(OCCCCCOc2ccc(C(=N)N)cc2)cc1 [Pentamidine]
IC50 ([1]; Leishmania amazonensis): 15.7 ± 5.2 µM | IC50 [5]: 17.8 ± 2.2 µM | IC50 [6]: 5.3 ± 0.9 µM | IC50 [7]: 30 ± 5 µM | IC50 [8]: 30.4 ± 11 µM | Selective index (a)/(b) [3]: 1.9 | IC50 ([3]; Leishmania amazonensis, 72 h): 15.7 ± 5.2 µM | IC50 [9]: 1.1 ± 0.1 µM | Selective index (a)/(c) ([10]; IC50 RAW264.7 over IC50 L. donovani Ld39 amastigotes): <1 | IC50 [10]: > 30 µM | RAW264.7 ROS Level, Relative fold (RF) (RAW264.7 cells; 10 μM, 2 hr): 0.9 fold | RAW264.7 ROS Level, Relative fold (RF) (RAW264.7 cells; 10 μM, 4 hr): 0.9 fold | RAW264.7 ROS Level, Relative fold (RF) (RAW264.7 cells; 10 μM, 6 hr): 0.9 fold | RAW264.7 ROS Level, Relative fold (RF) (RAW264.7 cells; 10 μM, 8 hr): 0.8 fold | RAW264.7 ROS Level, Relative fold (RF) (RAW264.7 cells; 10 μM, 20 hr): 0.8 fold | ROS induction in macrophages (RAW264.7 cells; 10 μM, RAW264.7): No ROS induction | RAW264.7 ROS Level, Relative fold (RF) (RAW264.7 cells; 30 μM, 2 hr): 1.1 fold | RAW264.7 ROS Level, Relative fold (RF) (RAW264.7 cells; 30 μM, 4 hr): 1.2 fold | RAW264.7 ROS Level, Relative fold (RF) (RAW264.7 cells; 30 μM, 6 hr): 1.1 fold | RAW264.7 ROS Level, Relative fold (RF) (RAW264.7 cells; 30 μM, 20 hr): 0.9 fold | RAW264.7 ROS Level, Relative fold (RF) (RAW264.7 cells; 30 μM, 46 hr): 0.9 fold | L. amazon LV78 promastigote ROS Level, Relative fold (RF) ([11]; 2 hr): 1.3 fold | L. amazon LV78 promastigote ROS Level, Relative fold (RF) ([11]; 4 hr): 1.4 fold | L. amazon LV78 promastigote ROS Level, Relative fold (RF) ([11]; 6 hr): 1.5 fold | L. amazon LV78 promastigote ROS Level, Relative fold (RF) ([11]; 20 hr): 1.8 fold | L. amazon LV78 promastigote ROS Level, Relative fold (RF) ([11]; 46 hr): about 2.6 fold | L. amazon LV78 promastigote ROS Level, Relative fold (RF) ([11]; 46 hr, listed as pentamidine): 2.6 fold | L. amazon LV78 promastigote ROS Level, Relative fold (RF) ([11]; 72 hr): ~3.4 fold

O=c1cc(-c2ccc(OCCN3CCN(Cc4ccncc4)CC3)cc2)oc2ccccc12 [FM01, 2-(4-(2-(4-(pyridin-4-ylmethyl)piperazin-1-yl)ethoxy)phenyl)-4H-chromen-4-one]
IC50 ([1]; Leishmania amazonensis): 6 ± 1.8 µM | IC50 [5]: 5.6 ± 1 µM | IC50 ([2]; Leishmania donovani): 1.2 ± 0.3 µM | IC50 [6]: 0.7 ± 0.1 µM | IC50 [12]: > 33 µM | Selective index (a)/(b) [3]: 28.8 | IC50 ([3]; Leishmania amazonensis, 72 h): 1.8 ± 0.6 µM | IC50 [9]: 8.4 µM | IC50 ([4]; Leishmania donovani, 72 h): > 9 µM | IC50 [10]: > 10 µM | Ratio of plasma concentration from oral feeding to i.v. administration [13]: 45% | IC50 [14]: < 5 µM | IC50 [15]: < 5 µM

— patent US10111854B2, “Synthesis and use of amine-containing flavonoids as potent anti-leishmanial agents” (The Hong Kong Polytechnic University, priority 2014, dated 2018)
